Data: US20050272784A1 (priority 2004, published 2005)

Columns and labels:
[1] = system: type III protein secretion system of P. aeruginosa PA103 (ExoU secretion); experiment: Tertiary assay: Type III-dependent secretion of ExoU by P. aeruginosa PA103; format: cell-based; settings: Pseudomonas aeruginosa, ExoU Conc 100 μM, read-out: ExoU % Inh
From the text: Tertiary assay: inhibition of Type III protein secretion of effectors from a Pseudomonas aeruginosa system. Type III protein secretion is used by P. aeruginosa to secrete several essential virulence determinants. One effector of the type III protein secretion system of P. aeruginosa PA103 is the virulence determinants ExoU.
The amount of Type III-dependent secretion of ExoU by P. aeruginosa PA103 can be determined in a cell-based assay by quantification of the 73.9 kDa ExoU protein scereted into the extracellular medium. Such quantitation can be achieved by growing strain PA103 in a deferrated medium in the presence of nitrilotriacetic acid (an inducer of Type III protein secretion in P. aeruginosa) and either in the presence or absence of putative inhibitors. After a prolonged growth period, the cells are sedimented and the supernatants concentrated by ammonium sulfate precipitation. The proteins in the resuspended pellets are separated by electrophoresis on SDS-polyacrylamide gels. After staining gels with Colloidal Blue™, the 73.9 kDa ExoU band is quantitated by scanning through an imager. The effects of inhibitors on the intensity of the ExoU band may be measured relative to that of untreated controls.

[2] = system: SPI1 type III protein secretion system (SopE'-'Bla secretion); experiment: Primary assay: Type III protein secretion of the chimeric SopE'-'Bla polypeptide by Salmonella enterica; format: cell-based; settings: read-out: SopE IC50
From the text: Primary assay: Type III protein secretion of the chimeric SopE′-'Bla polypeptide by Salmonella enterica. This procedure is a cell-based assay that measures the type III-dependent secretion by Salmonella enterica of a plasmid-encoded chimeric polypeptide whose synthesis can be regulated, and which is endowed with an enzymatic activity that can be monitored […] by hydrolysis of a substrate that is unable to penetrate into the bacterial cytoplasm within the time constraints of the reaction. Thus, the colorimetric reaction is not influenced by SopE′-'Bla polypeptide in the bacterial cytoplasm. Instead, it effectively measures the amount of polypeptide that has been secreted from the S. enterica cytoplasm to the extracellular medium via type III system protein secretion.
The SopE′-' Bla recombinant polypeptide consists of two functionally distinct domains spliced together. The N-terminus domain is encoded by a polynucleotide region specifying the signal for type III secretion of the SopE polypeptide of S. enterica, an effector of the SPI1 type III protein secretion system. The C-terminus domain of SopE′-'Bla consists of a 263 amino acid peptide sequence that corresponds to the TEM-1 β-lactamase expressed by plasmid pBR322 but without its N-terminal signal sequence. The TEM-1 β-lactamase part of the SopE′-'Bla chimeric polypeptide is used as a reporter enzyme. It is capable of hydrolyzing nitrocefin resulting in a product whose accumulation can be monitored by colorimetric detection. The secretion of the SopE′-'Bla chimeric polypeptide from the cytoplasm to the extracellular medium is dependent on type III protein secretion.
For this procedure, cells grown under conditions known to favor a functional SPI1 secretion system are induced for expression of the SopE′-'Bla protein and grown either in the presence or in the absence of putative inhibitors for determined time. Nitrocefin is then added to the various cultures and its hydrolysis are used for quantitation. An inhibitor of Type III protein secretion is generally a compound that reduces the signal of the enzymatic reaction by decreasing the amount of SopE′-'Bla secreted into the extracellular medium.

With `O=C(N[C@@H](C[S+]([O-])Cc1ccccc1)C(=O)O)c1nc(-c2ccc(C(F)(F)F)cc2)[nH]c1-c1ccc(-c2ccccc2)cc1` (stereo partly drawn) [Compound 12, (R)-2-{[5-Biphenyl-4-yl-2-(4-trifluoromethylphenyl)-1H-imidazole-4-carbonyl]amino}-3-phenylmethanesulfinylpropionic acid] as the molecule, how does the inhibition at 100 µM [1] read?
Its inhibition at 100 µM is 84.3%.

What about the IC50 [2] of the same molecule?
Its IC50 is 14 µM.
